Experimental data from patent publication EP0367189A2, “Sugar phosphates and sulfonates of epipodophyllotoxin glucosides” (Bristol-Myers Squibb Company, priority 1988, dated 1990).
In brackets after ≈: the same amount, converted by molar mass.

Tests used:
B16 melanoma cells = experiment: In vitro cytotoxicity against B16 melanoma cells (neutral red staining); format: cell-based; details: 72 hours at 37°C, colorimetric at 540 nm, IC₅₀ higher than 100 µg/ml = lack of cytotoxic activity
Method: Cytotoxicity of compounds of the present invention was studied using B16 melanoma cells. B16 melanoma cells were grown to the logarithmic phase in the enriched Eagle minimum essential medium supplemented with fetal calf serum (10%) and kanamycin (60 mcg/ml). The tumor cells were harvested and implanted into wells of the 96-well microtiter plate with test materials at the inoculum size of 3.0 x 10⁴ cells/ml. They were incubated at 37°C in humidified atmosphere of 5% CO₂ and 95% air for 72 hours. The cytotoxic activity against the above cell line was determined colorimetrically at 540 nm after staining viable cells with neutral red and is reported in terms of the concentration that inhibits 50% of cell growth (IC₅₀). IC₅₀ values of higher than 100 µg/ml are generally considered as indicating lack of cytotoxic activity.

P388 leukemia = experiment: Antitumor activity against murine transplantable P388 leukemia (survival); format: in vivo, CDF₁ mice; details: maximum % T/C only, at the dose giving the maximum effect (dose column of Table I); single intraperitoneal dose on day 1; observed 45 days; 10⁶ P388 cells ip; % T/C of 125 or greater = significant
Method: Representative compounds of the present invention were evalnated for anti tumor activity against murine transplantable P388 leukemia. Five-week old female CDF₁ mice were inoculated intraperitoneally with 0.4 ml of diluted ascitic fluid containing 10⁶ lymphocytic leukemia P388 cells. […] The percent increase of median survival time (MST) of treated animals over that of untreated control animals was determined and reported as % T/C. Compounds showing % T/C values of 125 or greater are considered to have significant antitumor activity. Table I presents the results of the in vivo evaluation; only the maximum % T/C and the dose giving the maximum effects are reported.

[1] = molecular target: T1, prostatic acid phosphatase (Homo sapiens, UniProt P15309); details: Seligman et al, Cancer Chemotherapy Reports Part I, 1975; cited from earlier work
T1 sequence (P15309 33-386): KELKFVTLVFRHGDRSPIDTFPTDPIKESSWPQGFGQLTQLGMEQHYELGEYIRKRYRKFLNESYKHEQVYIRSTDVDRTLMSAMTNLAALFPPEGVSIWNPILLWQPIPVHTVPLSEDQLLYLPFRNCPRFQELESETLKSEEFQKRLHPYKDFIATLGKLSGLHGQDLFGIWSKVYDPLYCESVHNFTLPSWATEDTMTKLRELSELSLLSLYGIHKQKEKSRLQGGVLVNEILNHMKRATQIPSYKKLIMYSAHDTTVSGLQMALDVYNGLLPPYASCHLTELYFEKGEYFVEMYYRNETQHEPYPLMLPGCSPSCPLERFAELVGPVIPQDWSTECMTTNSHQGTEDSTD

[2] = Seligman et al, Cancer Chemotherapy Reports Part I, 1975; cited from earlier work

| Compound | IC₅₀ (B16 melanoma cells) [µg/mL] | %T/C of MST (P388 leukemia) [%] | IC50 (B16 melanoma cells; Mus musculus) [µg/mL] | hydrolysis by prostatic acid phosphatase [1] | toxicity over the parent podophyllotoxin [2] |
| --- | --- | --- | --- | --- | --- |
| etoposide 3˝-mesylate [Compound XXIII] | 0.32 | 175 |  |  |  |
| etoposide 3˝-tosylate [Compound XVII] | 0.07 | 195 |  |  |  |
| disodium etoposide 3˝-phosphate [Compound XI] | 2.2 | 185 |  |  |  |
| sodium bis(etoposide-3˝-)phosphate [Compound XIII] | 37 | 125 |  |  |  |
| COc1cc([C@@H]2c3cc4c(cc3[C@@H](O[C@@H]3O[C@@H]5CO[C@@H](C)O[C@H]5[C@H](O)[C@H]3O)[C@H]3COC(=O)[C@H]23)OCO4)cc(OC)c1O [Etoposide, etoposide, reference compound] |  | 250 | 0.21 (≈ 0.357 µM) |  |  |
| disodium etoposide 2˝ -phosphate [Compound XII] | 20 | 120 |  |  |  |
| podophyllotoxin phosphate disodium salt |  |  |  | not hydrolyzed | did not show reduced toxicity |
| etoposide 2˝-tosylate [Compound XVIII] | 5.4 | 115 |  |  |  |
| etoposide 2˝,3˝-ditosylate [Compound XIX] | 30 | 100 |  |  |  |
| etoposide 2˝-mesylate [Compound XXIV] | 29 | 130 |  |  |  |
| etoposide 3˝-diphenyl phosphate [XXVI] | 8.0 | 130 |  |  |  |
